Experimental data: PMC10381309 (Journal of Fungi, 2023)
Values after ≈ are worked out from the molar mass of the structure shown.

Key:
[1] = test system: Fonsecaea pedrosoi (CFP 00791); assay: MIC determination (EUCAST, minor modifications); assay type: cell-based; settings: for Selectivity Index (SI): F. pedrosoi
Protocol: (§1) Minimum inhibitory concentrations (MICs) were determined using the method proposed by the European Committee on Antimicrobial Susceptibility Testing (EUCAST), with minor modifications. Hit drugs were serially diluted (80 μM to 0.15625 μM) in RPMI 1640 (twice concentrated, pH 7; supplemented with 2% glucose) buffered with MOPS in 96-well plates. The inoculums of all strains were prepared following the EUCAST protocol. Plates were incubated at 35 °C for 72–96 h. The MIC of the NCC substances was determined as the lowest concentration capable of inhibiting 100% of fungal growth when compared to the growth control well. MIC values were determined in duplicate.

[2] = test system: Exophiala dermatitidis (ATCC 28869); assay: MIC determination (EUCAST, minor modifications); assay type: cell-based; settings: for Selectivity Index (SI): E. dermatitidis
Protocol: as §1

[3] = test system: Cladophialophora carrionii (CFP 00910); assay: MIC determination (EUCAST, minor modifications); assay type: cell-based; settings: for Selectivity Index (SI): C. carrionii
Protocol: as §1

[4] = test system: Exophiala heteromorpha (ATCC 28180); assay: MIC determination (EUCAST, minor modifications); assay type: cell-based; settings: for Selectivity Index (SI): E. heteromorpha
Protocol: as §1

[5] = test system: Fonsecaea nubica (CFP 00912); assay: MIC determination (EUCAST, minor modifications); assay type: cell-based; settings: for Selectivity Index (SI): F. nubica
Protocol: as §1

[6] = test system: Rhinocladiela similis (CFP 00790); assay: MIC determination (EUCAST, minor modifications); assay type: cell-based; settings: for Selectivity Index (SI): R. similis
Protocol: as §1

[7] = test system: Phialophora verrucosa (CFP 00937); assay: MIC determination (EUCAST, minor modifications); assay type: cell-based; settings: for Selectivity Index (SI): P. verrucosa
Protocol: as §1

[8] = test system: Fonsecaea monophora (CFP 00911); assay: MIC determination (EUCAST, minor modifications); assay type: cell-based; settings: for Selectivity Index (SI): F. monophora
Protocol: as §1

[9] = test system: Exophiala heteromorpha (ATCC 28180); settings: E. heteromorpha; PDA; 7 days, 37 °C; albendazole at ½ MIC
Protocol: At the end of the seven days of incubation at 37 °C, the plates were read visually. The aspect of the colonies supplemented with albendazole were compared to those of the positive melanin and inhibition melanin controls, to determine whether the color of the albendazole-supplemented cultures resembled the positive DHN-melanin or the melanin inhibition control. Pictures of the colonies were captured using a Canon EOS Rebel T7+ digital camera.

[10] = test system: Fonsecaea pedrosoi (CFP 00791); assay: Chequerboard synergism assay (FICI); assay type: cell-based; settings: F. pedrosoi
Protocol: (§2) To assess the type of interaction between the hit drugs and the antifungal drugs most used in the treatment of CBM (itraconazole and terbinafine), the fractional inhibitory concentration index (FICI) was determined, which defines the type of interaction between drugs in combination as follows: synergism if FICI ≤ 0.5; indifference if 0.5 < FICI ≤ 4; and antagonism if FICI > 4 [39]. The FICI was obtained by the sum of the fractional inhibitory concentrations (FIC) or by the formula: (A/MIC(a) = FIC_A) + (B/MIC(b) = FIC_B) = FICI, where: A = MIC of the drug (a) in combination; MIC (a) = MIC of drug (a) alone; B = MIC of drug (b) in combination; and MIC (b) = MIC of drug (b) alone. The test was carried out using the chequerboard method, in which the two drugs were applied in a single well of a 96-well plate, so that in each of the wells there were different concentrations of the combinations between the substance and the antifungal agent (Figure S1). Drug dilutions were prepared following the methodology proposed by EUCAST, starting from a stock solution of the hit drug or antifungal drug 100× concentrated, according to the methodology described to determine the MIC [36]. Hit drug A/antifungal drug B serial microdilution preparations were performed following the above mentioned protocol, observing the final concentration in the wells after the addition of drugs and inoculum. […] Column 12 was reserved for drug B (itraconazole or terbinafine) susceptibility testing. Row H was reserved for the selected NCC substance. The other combined drug and substance concentrations were distributed between columns 2 and 11 in rows A to G. Drug concentrations ranged from 0.062 μM to 4 µM for itraconazole and terbinafine, and from 0.125 μM to 64 µM for the hit drug on the combination boards.

[11] = test system: Exophiala dermatitidis (ATCC 28869); assay: Chequerboard synergism assay (FICI); assay type: cell-based; settings: E. dermatitidis
Protocol: as §2

[12] = test system: Cladophialophora carrionii (CFP 00910); assay: Chequerboard synergism assay (FICI); assay type: cell-based; settings: C. carrionii
Protocol: as §2

[13] = test system: Exophiala heteromorpha (ATCC 28180); assay: Chequerboard synergism assay (FICI); assay type: cell-based; settings: E. heteromorpha
Protocol: as §2

[14] = test system: Fonsecaea nubica (CFP 00912); assay: Chequerboard synergism assay (FICI); assay type: cell-based; settings: F. nubica
Protocol: as §2

[15] = test system: Rhinocladiela similis (CFP 00790); assay: Chequerboard synergism assay (FICI); assay type: cell-based; settings: R. similis
Protocol: as §2

[16] = test system: Phialophora verrucosa (CFP 00937); assay: Chequerboard synergism assay (FICI); assay type: cell-based; settings: P. verrucosa
Protocol: as §2

[17] = test system: Fonsecaea monophora (CFP 00911); assay: Chequerboard synergism assay (FICI); assay type: cell-based; settings: F. monophora
Protocol: as §2

CCCSc1ccc2nc(NC(=O)OC)[nH]c2c1 [Albendazole]
Selectivity Index (SI) ([1]; CC50 HaCat 96 h / MIC): 68.08 | Selectivity Index (SI) ([1]; CC50 Vero 24 h / MIC): 301.88 | Selectivity Index (SI) ([1]; CC50 Vero 96 h / MIC): 209.24 | MIC ([1]; Fonsecaea pedrosoi): 1.25 µM (≈ 0.332 µg/mL) | Selectivity Index (SI) ([2]; CC50 HaCat 96 h / MIC): 34.04 | Selectivity Index (SI) ([2]; CC50 Vero 24 h / MIC): 150.94 | Selectivity Index (SI) ([2]; CC50 Vero 96 h / MIC): 104.62 | MIC ([2]; Exophiala dermatitidis, ATCC28869): 2.5 µM (≈ 0.663 µg/mL) | Selectivity Index (SI) ([3]; CC50 HaCat 96 h / MIC): 34.04 | Selectivity Index (SI) ([3]; CC50 Vero 24 h / MIC): 150.94 | Selectivity Index (SI) ([3]; CC50 Vero 96 h / MIC): 104.62 | MIC ([3]; Cladophialophora carrionii): 2.5 µM (≈ 0.663 µg/mL) | Selectivity Index (SI) ([4]; CC50 HaCat 96 h / MIC): 34.04 | Selectivity Index (SI) ([4]; CC50 Vero 24 h / MIC): 150.94 | Selectivity Index (SI) ([4]; CC50 Vero 96 h / MIC): 104.62 | MIC ([4]; Exophiala heteromorpha, ATCC28180): 2.5 µM (≈ 0.663 µg/mL) | Selectivity Index (SI) ([5]; CC50 HaCat 96 h / MIC): 136.16 | Selectivity Index (SI) ([5]; CC50 Vero 24 h / MIC): 603.76 | Selectivity Index (SI) ([5]; CC50 Vero 96 h / MIC): 418.49 | MIC ([5]; Fonsecaea nubica): 0.625 µM (≈ 0.166 µg/mL) | MIC [6]: 1.25 µM (≈ 0.332 µg/mL) | Selectivity Index (SI) ([6]; CC50 HaCat 96 h / MIC): 68.08 | Selectivity Index (SI) ([6]; CC50 Vero 24 h / MIC): 301.88 | Selectivity Index (SI) ([6]; CC50 Vero 96 h / MIC): 209.24 | Selectivity Index (SI) ([7]; CC50 HaCat 96 h / MIC): 136.16 | Selectivity Index (SI) ([7]; CC50 Vero 24 h / MIC): 603.76 | Selectivity Index (SI) ([7]; CC50 Vero 96 h / MIC): 418.49 | MIC ([7]; Phialophora verrucosa): 0.625 µM (≈ 0.166 µg/mL) | Selectivity Index (SI) ([8]; CC50 HaCat 96 h / MIC): 136.16 | Selectivity Index (SI) ([8]; CC50 Vero 24 h / MIC): 603.76 | Selectivity Index (SI) ([8]; CC50 Vero 96 h / MIC): 418.49 | MIC ([8]; Fonsecaea monophora): 0.625 µM (≈ 0.166 µg/mL) | melanin production [9]: did not observe a decrease in melanin production | FICI Albendazole + Itraconazole ([10]; combination with itraconazole): 1 | FICI Albendazole + Terbinafine ([10]; combination with terbinafine): 1.12 | FICI Albendazole + Itraconazole ([11]; combination with itraconazole): 1.06 | FICI Albendazole + Terbinafine ([11]; combination with terbinafine): 1.06 | FICI Albendazole + Itraconazole ([12]; combination with itraconazole): 1.06 | FICI Albendazole + Terbinafine ([12]; combination with terbinafine): 1.06 | FICI Albendazole + Itraconazole ([13]; combination with itraconazole): 1.03 | FICI Albendazole + Terbinafine ([13]; combination with terbinafine): 1.06 | FICI Albendazole + Itraconazole ([14]; combination with itraconazole): 1.25 | FICI Albendazole + Terbinafine ([14]; combination with terbinafine): 1.12 | FICI Albendazole + Itraconazole ([15]; combination with itraconazole): 0.62 | FICI Albendazole + Terbinafine ([15]; combination with terbinafine): 2 | FICI Albendazole + Itraconazole ([16]; combination with itraconazole): 1.125 | FICI Albendazole + Terbinafine ([16]; combination with terbinafine): 2.12 | FICI Albendazole + Itraconazole ([17]; combination with itraconazole): 1.50 | FICI Albendazole + Terbinafine ([17]; combination with terbinafine): 1.12
